Patent publication US12215173B2, “Kappa opioid receptor peptide amide ligands” (priority 2019, dated 2025)
Read-outs that look alike come from different tables or passages of the source. Square brackets hold non-standard residues; d marks the D form. Peptide text beside a SMILES is read from it. * marks the point of attachment. Piperidin1yl(4-NH2,4-CO2Me) = COC(=O)C1(N)CCN(*)CC1; Pyrrolidinyl(3-NH2,3-CO2Me) = COC(=O)C1(N)CCN(*)C1; dAla(cPr) = N[C@H](CC1CC1)C(=O)O

How the values were obtained:
[1] = molecular target: recombinant human kappa (KOR) opioid receptor (Homo sapiens (Human), UniProt P41145); assay: biochemical; type: binding
[2] = molecular target: recombinant human mu (MOR) opioid receptor (Homo sapiens (Human), UniProt P35372); assay: Opioid receptor radioligand binding assay, MOR
[3] = molecular target: recombinant human delta (DOR) opioid receptor (Homo sapiens (Human), UniProt P41143); assay: Opioid receptor radioligand binding assay, DOR
recombinant human delta (DOR) opioid receptor, sequence (P41143 whole entry, looked up): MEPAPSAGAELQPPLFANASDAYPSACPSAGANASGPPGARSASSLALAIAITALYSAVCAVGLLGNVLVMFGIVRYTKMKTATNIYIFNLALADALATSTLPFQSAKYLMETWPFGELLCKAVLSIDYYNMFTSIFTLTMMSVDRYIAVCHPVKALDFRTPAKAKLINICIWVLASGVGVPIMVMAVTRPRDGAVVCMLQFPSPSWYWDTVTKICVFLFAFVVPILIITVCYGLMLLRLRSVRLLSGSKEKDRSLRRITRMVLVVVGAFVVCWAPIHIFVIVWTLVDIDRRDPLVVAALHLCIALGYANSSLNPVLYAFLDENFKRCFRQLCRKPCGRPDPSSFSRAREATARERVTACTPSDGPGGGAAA

[4] = molecular target: Opioid Kappa Receptor (recombinant human, HEK293 cells) (Homo sapiens (Human), UniProt P41145); assay: cell-based
[5] = HEK293 cell membranes, 0.5 nM [3H]diprenorphine
[6] = HEK293 cell membranes, 0.5 nM [3H]DAMGO, read-out: MOR, IC50
[7] = HEK293 cell membranes, 0.5 nM [3H]DADLE, read-out: DOR, IC50

Row | Structure (SMILES) | IC50 [1, 5] | IC50 [2] | IC50 [3] | EC50 ([4]; read-out: EC50) | IC50 [2, 6] | IC50 [3, 7] | IC50 [1] | EC50 [4]
1 | COC(=O)C1(N)CCN(C(=O)CNC(=O)[C@@H](CCCCN)NC(=O)[C@@H](CC(C)C)NC(=O)[C@@H](Cc2ccccc2)NC(=O)[C@H](N)Cc2ccccc2)CC1 [Compound 66] (H-[dF][dF][dL][dK]G-{Piperidin1yl(4-NH2,4-CO2Me)}) | 20.9 nM | 307 nM | > 10000 nM | 12.9 nM | – | – | – | –
2 | CC(C)C[C@@H](NC(=O)[C@@H](Cc1ccccc1)NC(=O)[C@H](N)Cc1ccccc1)C(=O)N[C@H](CCCCN)C(=O)NCc1ccc(O)c(O)c1 [Compound 13-10] | 0.67 nM | – | – | 23.1 nM | > 10000 nM | > 10000 nM | – | –
3 | CC(C)C[C@@H](NC(=O)[C@@H](Cc1ccccc1)NC(=O)[C@H](N)Cc1ccccc1)C(=O)N[C@H](CCCCN)C(=O)NCc1n[nH]c(=O)[nH]1 [Compound 13-45] | 0.43 nM | > 10000 nM | > 10000 nM | 1.53 nM | – | – | – | –
4 | CC(C)C[C@@H](NC(=O)[C@@H](Cc1ccccc1)NC(=O)[C@H](N)Cc1ccccc1)C(=O)N[C@H](CCCCN)C(=O)NCCOCCO [Compound 13-51] | 0.27 nM | – | – | 5.15 nM | 349 nM | > 10000 nM | – | –
5 | CC(C)C[C@@H](NC(=O)[C@@H](Cc1ccccc1)NC(=O)[C@H](N)Cc1ccccc1)C(=O)N[C@H](CCCCN)C(=O)N1CCC(NC(=O)CC[C@H](N)C(N)=O)CC1 [Compound 13-41] | 0.21 nM | – | – | 9.12 nM | 8220 nM | > 10000 nM | – | –
6 | CC(C)C[C@@H](NC(=O)[C@@H](Cc1ccccc1)NC(=O)[C@H](N)Cc1ccccc1)C(=O)N[C@H](CCCCN)C(=O)NC1CCN(C(=O)C(=O)N(C)C)CC1 [Compound 13-17] | 23.4 nM | – | – | 22 nM | > 10000 nM | > 10000 nM | – | –
7 | CC(C)C[C@@H](NC(=O)[C@@H](Cc1ccccc1)NC(=O)[C@H](N)Cc1ccccc1)C(=O)N[C@H](CCCCN)C(=O)N(C)C[C@H](O)[C@@H](O)[C@H](O)[C@H](O)CO [Compound 13-50] | 0.37 nM | – | – | 12.2 nM | 1110 nM | > 10000 nM | – | –
8 | CCOC(=O)N1CCN(C(=O)[C@@H](CCCCN)NC(=O)[C@@H](CC(C)C)NC(=O)[C@@H](Cc2ccccc2)NC(=O)[C@H](N)Cc2ccccc2)CC1 [Compound 13-47] | – | – | – | – | > 10000 nM | > 10000 nM | 0.27 nM | 4.84 nM
9 | COC(=O)C1(N)CCN(C(=O)[C@@H](CCCCN)NC(=O)[C@@H](CC2CC2)NC(=O)[C@@H](Cc2ccccc2)NC(=O)[C@H](N)Cc2ccccc2)CC1 [Compound 112] (H-[dF][dF][dAla(cPr)][dK]-{Piperidin1yl(4-NH2,4-CO2Me)}) | 1 nM | – | – | 5.95 nM | 15.2 nM | > 10000 nM | – | –
10 | COC(=O)[C@@H](N)CNC(=O)[C@@H](CCCCN)NC(=O)[C@@H](CC(C)C)NC(=O)[C@@H](Cc1ccccc1)NC(=O)[C@H](N)Cc1ccccc1 [Compound 13-12] | 6.6 nM | – | – | 7.07 nM | > 10000 nM | > 10000 nM | – | –
11 | CC(C)C[C@@H](NC(=O)[C@@H](Cc1ccccc1)NC(=O)[C@H](N)Cc1ccccc1)C(=O)N[C@H](CCCCN)C(=O)NC[C@H](N)C(=O)O [Compound 13-13] | 16.1 nM | – | – | 88.4 nM | > 10000 nM | > 10000 nM | – | –
12 | CC(C)C[C@@H](NC(=O)[C@@H](Cc1ccccc1)NC(=O)[C@H](N)Cc1ccccc1)C(=O)N[C@H](CCCCN)C(=O)N1CCN(C(=O)C(=O)NC2CC2)CC1 [Compound 13-23] | 0.79 nM | – | – | 8.58 nM | 318 nM | > 10000 nM | – | –
13 | CNC(=O)C(=O)N1CCN(C(=O)[C@@H](CCCCN)NC(=O)[C@@H](CC(C)C)NC(=O)[C@@H](Cc2ccccc2)NC(=O)[C@H](N)Cc2ccccc2)CC1 [Compound 13-27] | 0.53 nM | – | – | 12 nM | > 10000 nM | > 10000 nM | – | –
14 | CC(C)C[C@@H](NC(=O)[C@@H](Cc1ccccc1)NC(=O)[C@H](N)Cc1ccccc1)C(=O)N[C@H](CCCCN)C(=O)N1CCC(N)(C(=O)OCCO)C1 (stereo partly shown) [Compound 50] | 0.39 nM | – | – | 9.07 nM | 7530 nM | > 10000 nM | – | –
15 | CNC(=O)N1CCN(C(=O)[C@@H](CCCCN)NC(=O)[C@@H](CC(C)C)NC(=O)[C@@H](Cc2ccccc2)NC(=O)[C@H](N)Cc2ccccc2)CC1 [Compound 13-58] | 0.29 nM | – | – | 10.8 nM | > 10000 nM | > 10000 nM | – | –
16 | COC(=O)C1(N)CCN(C(=O)[C@@H](CCCCN)NC(=O)[C@@H](CC2CC2)NC(=O)[C@@H](Cc2ccccc2)NC(=O)[C@H](N)Cc2ccccc2)C1 (stereo partly shown) [Compound 118] (H-[dF][dF][dAla(cPr)][dK]-{Pyrrolidinyl(3-NH2,3-CO2Me)}) | 0.33 nM | – | – | 9.31 nM | > 10000 nM | > 10000 nM | – | –
17 | CC(C)C[C@@H](NC(=O)[C@@H](Cc1ccccc1)NC(=O)[C@H](N)Cc1ccccc1)C(=O)N[C@H](CCCCN)C(=O)NCc1ccncc1 [Compound 13-53] | 2.01 nM | 8750 nM | > 10000 nM | 12.6 nM | – | – | – | –
18 | COC(=O)C1(N)CCN(C(=O)[C@@H](CCCNC(=N)N)NC(=O)[C@@H](CC2CC2)NC(=O)[C@@H](Cc2ccccc2)NC(=O)[C@H](N)Cc2ccccc2)CC1 [Compound 126] (H-[dF][dF][dAla(cPr)][dR]-{Piperidin1yl(4-NH2,4-CO2Me)}) | 0.36 nM | – | – | 6.81 nM | 3030 nM | > 10000 nM | – | –
19 | COCCOCCNC(=O)[C@@H](CCCCN)NC(=O)[C@@H](CC(C)C)NC(=O)[C@@H](Cc1ccccc1)NC(=O)[C@H](N)Cc1ccccc1 [Compound 13-4] | 2.8 nM | – | – | 13.5 nM | > 10000 nM | > 10000 nM | – | –
20 | CC(C)C[C@@H](NC(=O)[C@@H](Cc1ccccc1)NC(=O)[C@H](N)Cc1ccccc1)C(=O)N[C@H](CCCCN)C(=O)NCc1cc[nH]c(=O)c1 [Compound 13-9] | 0.41 nM | – | – | 18.1 nM | > 10000 nM | > 10000 nM | – | –
21 | CC(C)C[C@@H](NC(=O)[C@@H](Cc1ccccc1)NC(=O)[C@H](N)Cc1ccccc1)C(=O)N[C@H](CCCCN)C(=O)NCc1ccnc(C(=O)O)c1 [Compound 13-8] | 6.04 nM | – | – | 14.7 nM | > 10000 nM | > 10000 nM | – | –
22 | CC(C)C[C@@H](NC(=O)[C@@H](Cc1ccccc1)NC(=O)[C@H](N)Cc1ccccc1)C(=O)N[C@H](CCCCN)C(=O)NCc1cccnc1C(=O)O [Compound 13-7] | 11.4 nM | > 10000 nM | > 10000 nM | 24.7 nM | – | – | – | –
23 | COC(=O)/C=C/C(=O)NC1CCN(C(=O)[C@@H](CCCCN)NC(=O)[C@@H](CC(C)C)NC(=O)[C@@H](Cc2ccccc2)NC(=O)[C@H](N)Cc2ccccc2)CC1 [Compound 13-19] | 0.33 nM | – | – | 75.8 nM | > 727 nM | > 10000 nM | – | –
24 | COC(=O)C1(N)CCN(C(=O)[C@@H](CCCNC(=N)N)NC(=O)[C@@H](CC2CC2)NC(=O)[C@@H](Cc2ccccc2)NC(=O)[C@H](N)Cc2ccccc2)C1 (stereo partly shown) [Compound 133] (H-[dF][dF][dAla(cPr)][dR]-{Pyrrolidinyl(3-NH2,3-CO2Me)}) | 1.3 nM | – | – | 9.64 nM | > 10000 nM | > 10000 nM | – | –
25 | CC(C)C[C@@H](NC(=O)[C@@H](Cc1ccccc1)NC(=O)[C@H](N)Cc1ccccc1)C(=O)N[C@H](CCCCN)C(=O)N1CCC(NC(=O)C[C@H](N)C(N)=O)CC1 [Compound 13-38] | 0.3 nM | > 10000 nM | > 10000 nM | 6.08 nM | – | – | – | –
26 | CCNC(=O)C(=O)N1CCN(C(=O)[C@@H](CCCCN)NC(=O)[C@@H](CC(C)C)NC(=O)[C@@H](Cc2ccccc2)NC(=O)[C@H](N)Cc2ccccc2)CC1 [Compound 13-43] | 0.33 nM | – | – | 8.7 nM | > 10000 nM | > 10000 nM | – | –
27 | CC(C)C[C@@H](NC(=O)[C@@H](Cc1ccccc1)NC(=O)[C@H](N)Cc1ccccc1)C(=O)N[C@H](CCCCN)C(=O)N1CCC(NC(=O)CNC(N)=O)CC1 [Compound 13-55] | 0.35 nM | > 10000 nM | > 10000 nM | 20.4 nM | – | – | – | –
28 | CC(C)C[C@@H](NC(=O)[C@@H](Cc1ccccc1)NC(=O)[C@H](N)Cc1ccccc1)C(=O)N[C@H](CCCCN)C(=O)N1CCC(NC(=O)C(N)C(=O)O)CC1 (stereo partly shown) [Compound 13-40] | 0.3 nM | – | – | 7.48 nM | 6390 nM | > 10000 nM | – | –
